Assay results reported in patent publication US20250296938A1, “Compounds that Interact with the Ras Superfamily for the Treatment of Cancers, Inflammatory Diseases, Rasopathies, and Fibrotic Disease” (SHY Therapeutics, LLC, priority 2018, published 2025).
Read-outs that look alike come from different tables or passages of the source.

Key:
Experiment in all cases: Ras GTP binding domain inhibition assay (Cy3-GTP/Cy5-GTP competition)
Rac-1 = Rac-1 (Homo sapiens, UniProt P63000)
Outline: (§1)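 First, His-tagged protein is coated on nickel wells overnight at 4 °C. Next, compound (20 μM single point or serial dilution) is added for 3 h at room temperature, with or without Sos exchange factor in the last hour. Finally, 100 nM labelled GTP binds for 45 min and retained signal is measured.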

KRas G12D mutant = target: T1, KRas G12D mutant (Homo sapiens, UniProt P01116, G12D)
T1 construct: fused on or other part: His tag, used for capture on nickel-coated plates
Outline: (§2)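 Compounds tested at 20 μM or in serial dilution for IC50 against nickel-captured His-tagged GTPase, 3 hours at room temperature, with or without His-Sos GEF added for last hour. Fluorescent GTP then added at 100 nM for 45 minutes; wells washed, bound label measured by fluorescence.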

Rho-A = Rho-A (Homo sapiens, UniProt P61586)
Outline: as §1

KRas wild type = tested on: KRas wild type; design: species or system human; conditions: 20 μM; for KRas wild type + SOS: % inh.: with SOS (Table 7A); for KRas wild type % inh.: without SOS (Table 7A)
Outline: as §2

KRas G12C mutant = tested on: KRas G12C mutant; design: species or system human; conditions: 20 μM; for KRas G12C mutant + SOS: % inh.: with SOS (Table 7A); for KRas G12C mutant: % inh.: without SOS (Table 7A)
Outline: as §2

KRas Q61H mutant = tested on: KRas Q61H mutant; design: species or system human; conditions: 20 μM; for KRas Q61H mutant + SOS: % inh.: with SOS (Table 7A); for KRas Q61H mutant: % inh.: without SOS (Table 7A)
Outline: as §2

[1] = with SOS, read-out: Rac-1 + SOS: % inh.
[2] = without SOS, read-out: Rac-1: % inh.
[3] = at 20 μM, with SOS, read-out: KRas G12D mutant + SOS: % inh.
[4] = at 20 μM, without SOS, read-out: KRas G12D mutant: % inh.
[5] = with SOS, read-out: Rho-A + SOS: % inh.
[6] = without SOS, read-out: Rho-A: % inh.
[7] = 20 μM, with SOS (Table 7A), read-out: KRas G12D mutant + SOS: % inh.
[8] = 20 μM, without SOS (Table 7A), read-out: KRas G12D mutant: % inh.

SMILES | inhibition at 20 µM (Rac-1; [1]) [%] | inhibition at 20 µM (Rac-1; [2]) [%] | inhibition at 20 µM (KRas G12D mutant; [3]) [%] | inhibition at 20 µM (KRas G12D mutant; [4]) [%] | inhibition at 20 µM (Rho-A; [5]) [%] | inhibition at 20 µM (Rho-A; [6]) [%] | inhibition at 20 µM (KRas G12D mutant; [7]) [%] | inhibition at 20 µM (KRas G12D mutant; [8]) [%] | KRas wild type + SOS: % inh. (KRas wild type) | KRas wild type % inh. (KRas wild type) | KRas G12C mutant + SOS: % inh. (KRas G12C mutant) | KRas G12C mutant: % inh. (KRas G12C mutant) | KRas Q61H mutant + SOS: % inh. (KRas Q61H mutant) | KRas Q61H mutant: % inh. (KRas Q61H mutant)
CCOC1CCN(c2nc(-c3nccn3C)nc3sc(-c4ccn(C)n4)c(-c4ccccc4)c23)C1 (stereo not shown) | 26 to 50 | 1 to 25 | 26 to 50 | 26 to 50 | 0 | 26 to 50 |  |  |  |  |  |  |  | 
CO[C@H]1C[C@@H](Nc2nc(-c3nccn3C)nc3sc(-c4ccn(C)n4)c(C)c23)C1 [drawing 914] |  |  |  |  |  |  | 51 to 75 | 51 to 75 | C (51-75% inhibition) | C (51-75% inhibition) | C (51-75% inhibition) | C (51-75% inhibition) | C (51-75% inhibition) | C (51-75% inhibition)
CO[C@H]1CC[C@@H](Nc2nc(-c3nccn3C)nc3sc(-c4ccn(C)n4)c(C)c23)C1 [drawing 915] |  |  |  |  |  |  | 51 to 75 | 26 to 50 | D (76-100% inhibition) | C (51-75% inhibition) | D (76-100% inhibition) | C (51-75% inhibition) | D (76-100% inhibition) | C (51-75% inhibition)
Cc1c(-c2ccn(C)n2)sc2nc(-c3nccn3C)nc(NCCCS(C)(=O)=O)c12 [drawing 916] |  |  |  |  |  |  | 76 to 100 | 76 to 100 | C (51-75% inhibition) | C (51-75% inhibition) | C (51-75% inhibition) | C (51-75% inhibition) | C (51-75% inhibition) | D (76-100% inhibition)
Cc1c(-c2ccn(C)n2)sc2nc(-c3nccn3C)nc(NCCCC(=O)N(C)C)c12 [drawing 917] |  |  |  |  |  |  | 76 to 100 | 51 to 75 | C (51-75% inhibition) | D (76-100% inhibition) | C (51-75% inhibition) | C (51-75% inhibition) | C (51-75% inhibition) | D (76-100% inhibition)
Cc1c(-c2ccn(C)n2)sc2nc(-c3nccn3C)nc(NCCOC(=O)N(C)C)c12 [drawing 918] |  |  |  |  |  |  | 76 to 100 | 76 to 100 | D (76-100% inhibition) | D (76-100% inhibition) | C (51-75% inhibition) | D (76-100% inhibition) | D (76-100% inhibition) | C (51-75% inhibition)
CO[C@H]1CC[C@@H](Nc2nc(-c3nccn3C)nc3sc(-c4ccn(C(C)C)n4)c(C)c23)C1 [drawing 919] |  |  |  |  |  |  | 51 to 75 | 51 to 75 | D (76-100% inhibition) | D (76-100% inhibition) | D (76-100% inhibition) | C (51-75% inhibition) | D (76-100% inhibition) | D (76-100% inhibition)
CO[C@H]1C[C@@H](Nc2nc(-c3nccn3C)nc3sc(C(=O)NC(C)C)c(-c4ccccc4)c23)C1 [drawing 920] |  |  |  |  |  |  | 51 to 75 | 51 to 75 | D (76-100% inhibition) | C (51-75% inhibition) | D (76-100% inhibition) | D (76-100% inhibition) | D (76-100% inhibition) | D (76-100% inhibition)
COCCNC(=O)c1sc2nc(-c3nccn3C)nc(N[C@H]3C[C@@H](OC)C3)c2c1-c1ccccc1 [drawing 921] |  |  |  |  |  |  | 51 to 75 | 51 to 75 | C (51-75% inhibition) | D (76-100% inhibition) | D (76-100% inhibition) | D (76-100% inhibition) | D (76-100% inhibition) | D (76-100% inhibition)
CO[C@H]1C[C@@H](Nc2nc(-c3nccn3C)nc3sc(C(=O)N4CCOCC4)c(-c4ccccc4)c23)C1 [drawing 922] |  |  |  |  |  |  | 51 to 75 | 51 to 75 | C (51-75% inhibition) | C (51-75% inhibition) | C (51-75% inhibition) | D (76-100% inhibition) | C (51-75% inhibition) | D (76-100% inhibition)
COC1CCN(C(=O)c2sc3nc(-c4nccn4C)nc(N[C@H]4C[C@@H](OC)C4)c3c2-c2ccccc2)C1 (stereo partly shown) [drawing 923] |  |  |  |  |  |  | 51 to 75 | 51 to 75 | C (51-75% inhibition) | C (51-75% inhibition) | C (51-75% inhibition) | C (51-75% inhibition) | C (51-75% inhibition) | C (51-75% inhibition)
CO[C@H]1CC[C@@H](Nc2nc(-c3nccn3C)nc3sc(C(=O)NC(C)C)c(-c4ccccc4)c23)C1 [drawing 924] |  |  |  |  |  |  | 76 to 100 | 76 to 100 | D (76-100% inhibition) | D (76-100% inhibition) | D (76-100% inhibition) | C (51-75% inhibition) | D (76-100% inhibition) | D (76-100% inhibition)
COCCNC(=O)c1sc2nc(-c3nccn3C)nc(N[C@@H]3CC[C@H](OC)C3)c2c1-c1ccccc1 [drawing 925] |  |  |  |  |  |  | 76 to 100 | 76 to 100 | D (76-100% inhibition) | D (76-100% inhibition) | D (76-100% inhibition) | D (76-100% inhibition) | D (76-100% inhibition) | D (76-100% inhibition)
CO[C@H]1CC[C@@H](Nc2nc(-c3nccn3C)nc3sc(C(=O)N4CCCC4)c(-c4ccccc4)c23)C1 [drawing 926] |  |  |  |  |  |  | 51 to 75 | 51 to 75 | C (51-75% inhibition) | C (51-75% inhibition) | D (76-100% inhibition) | D (76-100% inhibition) | D (76-100% inhibition) | D (76-100% inhibition)
CO[C@H]1CC[C@@H](Nc2nc(-c3nccn3C)nc3sc(C(=O)N4CCOCC4)c(-c4ccccc4)c23)C1 [drawing 927] |  |  |  |  |  |  | 51 to 75 | 76 to 100 | C (51-75% inhibition) | D (76-100% inhibition) | C (51-75% inhibition) | C (51-75% inhibition) | D (76-100% inhibition) | D (76-100% inhibition)
COCCn1cc(Nc2nc(-c3ccccn3)nc(OC)c2OC)cn1 [drawing 928] | 1 to 25 | 1 to 25 | 1 to 25 | 1 to 25 | 0 | 0 |  |  |  |  |  |  |  | 
COc1nc(-c2ccccn2)nc(Nc2cnn(C)c2)c1OC [drawing 929] | 0 | 1 to 25 | 0 | 0 | 1 to 25 | 0 |  |  |  |  |  |  |  | 
COCCNc1nc(-c2cn(C)cn2)nc2sc(-c3cc(OC)ccc3Cl)c(-c3ccc(OC)cc3)c12 [drawing 930] | 51 to 75 | 51 to 75 | 26 to 50 | 26 to 50 | 26 to 50 | 51 to 75 |  |  |  |  |  |  |  | 
COC1CCN(c2nc(-c3nccn3C)nn3cc(-c4ccccc4)c(-c4ccccc4)c23)C1 (stereo not shown) [drawing 931] | 51 to 75 | 26 to 50 | 1 to 25 | 26 to 50 | 26 to 50 | 51 to 75 |  |  |  |  |  |  |  | 
COCCNc1nc(-c2cn(C)cn2)nc2sc(-c3cccc(OC)c3Cl)c(-c3ccc(OC)cc3)c12 [drawing 932] | 51 to 75 | 51 to 75 | 26 to 50 | 26 to 50 | 51 to 75 | 51 to 75 |  |  |  |  |  |  |  | 
CC(C)CN(C)C(=O)c1nc(-c2ccccn2)nc(O)c1O [drawing 933] | 26 to 50 | 51 to 75 | 26 to 50 | 26 to 50 | 51 to 75 | 26 to 50 |  |  |  |  |  |  |  | 
